Columns and labels:
[1] = system: patient-derived cancer line expressing the HPV E6 protein; test: Dynamic monitoring of killing of patient-derived cancer line; assay type: cell-based, human
Text: FIG. 16A depicts dynamic monitoring of patient-derived cancer line to assess the capacity of the TCR to specifically kill tumor lines expressing the HPV E6 protein at 10:1 effector to target ratio. […] To assess non-specific (alloreactivity) background killing by the CD8 T cells, the growth of CD8 T cells that were stimulated and expanded but not subjected to CRISPR or LV editing are represented by Curve 3.

[2] = system: E6+HLA-A*02:01+ tumor line (Caski); test: Dynamic monitoring of killing of Caski tumor line; assay type: cell-based; settings: Caski cells
Text: FIG. 16B depicts dynamic monitoring of E6^+HLA-A*02:01^+tumor line (Caski) to assess the capacity of the engineered TCR to specifically kill tumor lines expressing the HPV E6 protein at 10:1 effector to target ratio. […] To assess non-specific (alloreactivity) background killing by the CD8 T cells, the growth of CD8 T cells that were stimulated and expanded but NOT subjected to CRISPR or LV editing are represented by Curve 3.

N.N.[Cl][Pt][Cl] [cisplatin]
time to kill tumor line [1]: ≤ 48 h
time to kill tumor line [2]: ≤ 48 h

Source: patent US12427195B1, “Methods of neoantigen identification” (La Jolla Institute for Immunology, priority 2019, dated 2025)
